Tests used:
LDL = experiment: Thiobarbituric acid assay of copper-induced LDL peroxidation; assay type: biochemical; conditions: 250 µg LDL in 1 ml, 5 µM CuSO₄, 5-18 hrs at 37 degrees C
Protocol: The thiobarbituric acid assay as described by Schuh et al., (PNAS 75: 3173, 1978) and modified by Morel et al., (Lab Invest 55: 419, 1986) was used to determine the degree of inhibition of LDL peroxidation by estradiol and Compound A of the invention. A 1 ml solution containing 250 micrograms (µg) of LDL with either estradiol or Compound A of the invention in amounts varying from 1-30 µM is incubated for 5-18 hrs at 37 degrees C in the presence of 5 µM CuSO₄. Following incubation, 1 ml of 25% trichloroacetic acid and 1 ml of 1% thiobarbituric acid is added. All samples are boiled for 45 minutes and fluorescence is measured at 515 nm excitation and 553 nm emission wavelengths. (Compound A is a compound of formula 1 wherein R₁ and R₃ are hydrogen, and R₂ is 1-pyrrolidino).

[1] = test system: Resident macrophages from the mouse peritoneal cavity; experiment: Macrophage-mediated oxidation (cellular modification) of LDL, TBAR values; assay type: cell-based; conditions: LDL 1 mg/ml, 24 hrs, media-alone value subtracted
Protocol: Resident macrophages from the mouse peritoneal cavity were plated at 1 x 10⁶ cells per well in F10 media without serum. […] The wells designated media alone represents LDL incubated overnight on the same plate with F10 media without cells. This value was subtracted from the TBAR values obtained in the presence of resident macrophages and reflects the extent of cellular modification of LDL.

| Structure (SMILES) | TBAR Units (LDL; 1µM compound) [TBAR UNITS] | TBAR Units (LDL; 5µM compound) [TBAR UNITS] | TBAR Units (LDL; 25µM compound) [TBAR UNITS] | TBAR Units ([1]; 1 µM compound) [TBAR Units] | TBAR Units ([1]; 2.5 µM compound) [TBAR Units] | TBAR Units ([1]; 5 µm compound) [TBAR Units] | TBAR Units ([1]; 25 µM compound) [TBAR Units] |
| --- | --- | --- | --- | --- | --- | --- | --- |
| O=C(c1ccc(OCCN2CCCC2)cc1)c1c(-c2ccc(O)cc2)sc2cc(O)ccc12 [Compound A] | 142 | 109 | 78 | 129 | 75 | 30 |  |
| C[C@]12CC[C@@H]3c4ccc(O)cc4CC[C@H]3[C@@H]1CC[C@@H]2O [Estradiol, estradiol, reference compound] |  |  |  |  |  |  | 30 |
